These results are taken from article PMC6494845 (Scientific Reports, 2019).

For series [1], the target named is T1, Aβ(1–42) aggregates (Homo sapiens, UniProt P05067).
T1 construct: β-Amyloid(1–42) peptide was purchased from Bachem; purchased Bachem (Torrance, CA, USA)
Put plainly: In vitro binding assay using Aβ(1–42) aggregates (intrinsic fluorescence of the ligands). As to conditions: Aβ(1–42) aggregates 1 μM, PBS, 37 °C, 1 h, ligand fluorescence. The protocol: Binding constants of the ligands for Aβ(1–42) aggregates were determined using the intrinsic fluorescence of the ligands. The binding constant of CRANAD-2 was also measured for comparison. […] Considering the Kd values and feasibility of ^18F-labeling of all the ligands, ligand 2 was selected for further in vitro and in vivo studies.
Aβ(1–42) aggregates were prepared as described in the literature. Briefly, Aβ(1–42) peptide (200 μM) was dissolved in PBS and stirred gently at 37 °C for 2 d. The Aβ(1–42) aggregate formation was confirmed by thioflavin-T fluorescence assay. In vitro binding assays were carried out using the methods described in the literature with some modifications. Various concentrations of ligands (10–400 nM) were dissolved in DMSO, which were then added to PBS solutions of Aβ(1–42) aggregates (1 μM) charged in 96-well black clear-bottom plates. The final concentration of DMSO in a total volume of solution was 1%. Non-specific binding was determined in the absence of Aβ(1–42) aggregates. The reaction mixtures were incubated at 37 °C for 1 h, after which the fluorescence spectra of the ligands were obtained (excitation 510–560 nm and emission 590–660 nm) using a monochromator multimode microplate reader. All experiments were performed in triplicate. Kd values were determined using GraphPad Prism software 5.

Series [2] can be described thus: Excitation and emission spectra. The series is classed as physicochemical. The following applies: methanol, 2.5 μM. The method, then: Despite this, ligand 2 has sufficient red-shifted emission for optical imaging.
Ligand 2 was dissolved in methanol (2.5 μM), and its excitation and emission spectra were obtained using a Mithras[2] LB 943 monochromator multimode microplate reader (Berthold Technologies, Bad Wildbad, Germany).

The nature of series [3]: Metabolism study of 2 (TLC with fluorescence detection of brain homogenates). The series is classed as in vivo, Balb/C nude mice. The protocol: In order to further investigate the metabolites of [^18F]2, metabolism study of 2 was also performed; the brain homogenates were analyzed by TLC, followed by fluorescence detection.
After ex vivo optical imaging, the brain tissues were homogenized in 1 mL of acetonitrile and centrifuged. The supernatants were analyzed by TLC using a 4:1 mixture of ethyl acetate–hexane as the developing solvents, and the TLC plates were subjected to optical imaging for 1 sec (excitation, 570 nm; emission, 660 nm).

Series [4] addresses Aβ plaques (Homo sapiens, UniProt P05067). The series is described as follows: Fluorescent staining of Aβ plaques in mouse brain sections. More on the design: species or system double transgenic mouse (Tg APP/PS-1). The protocol: Fluorescent staining of Aβ plaques by 2 was performed using the brain sections from a double transgenic mouse (Tg APP/PS-1). Localization of the Aβ plaques was confirmed by immunofluorescent staining the adjacent brain sections from the transgenic mouse with an anti-Aβ antibody (Fig. 6). The Aβ plaques in the cerebral cortex and hippocampus regions of the transgenic mouse brain sections were stained with 2 (Fig. 6a–c). The staining pattern was consistent with that observed with an Aβ-specific antibody (Fig. 6d–f).
Figure 6 A double transgenic mouse brain section (a–c) and an age-matched wild-type mouse brain section (g–i) stained with 2. The adjacent double transgenic mouse brain section (d–f) and age-matched wild-type mouse brain section (j–l) stained with an Aβ-specific antibody. Magnification of the regions in white boxes (c,f,i and l). Scale bars: 100 μm (c,f,i and l) and 200 μm (the rest).
A double transgenic mouse (APP/PS1, male, 18 months old) was transcardially perfused with PBS, followed by 10% neutral buffered formalin (NBF) under anesthesia. The brain was then immediately removed from skull and post-fixed in 10% NBF for 24 h. The hippocampus and cerebral cortex regions were sliced using brain matrix, embedded in paraffin, and sectioned serially into 4 μm thickness. Brain sections from an age-matched wild-type mouse (male) were obtained as described above. […]

For series [5], the system named is HIV-1 protease. More on the design: method as in PMID 8087563. As to conditions: cited from earlier work.
The nature of series [6]: Biodistribution study. The format is in vivo. As to conditions: ICR mice, i.v. The method, then: However, there was poor brain uptake at 2 min after injection with increased uptake over time, as follows: 0.49 ± 0.02% ID/g at 2 min, 1.02 ± 0.08% ID/g at 30 min, and 1.19 ± 0.06% ID/g at 60 min (Table 1).
ICR mice (male, 7-week-old, four mice per time point) were injected with [^18F]2 (1.85 MBq) dissolved in 10% ethanol–saline via a tail vein. Mice were sacrificed at the indicated time points (2, 30, and 60 min). Samples of blood and major tissues (heart, lung, liver, spleen, kidney, intestines, muscle, femur, and brain) were removed, weighed, and counted in a Wizard[2] automatic gamma counter (PerkinElmer, Waltham, MA, USA). Data are expressed as the percent injected dose per gram of tissue (% ID/g).

A short description of series [7]: Partition coefficient measurement (1-octanol/water). The following applies: 1-octanol and water. The format is physicochemical. The protocol:
Difluoroboron complex formation lowered the lipophilicity of the curcumin derivative based on TLC analysis.
Partition coefficient of [^18F]2 was measured according to the method described in the literature. [^18F]2 was dissolved in 1-octanol (1 mL) and diluted with water (1 mL). The solution was vortexed vigorously for 5 min and then centrifuged. The 1-octanol and aqueous layers were separated out, and a 500-μL aliquot of each layer was removed and measured using a gamma counter. Samples from the 1-octanol and aqueous layers were repartitioned until consistent values were obtained. The log P is expressed as the logarithm of the ratio of the counts per minute of 1-octanol versus that of water.

Series [8] in a line: Metabolism study of [^18F]2 (radio-TLC of brain homogenates and blood). The format is in vivo, ICR mice. As to conditions: brain homogenate, 2 min after injection. The method, then: However, the radioligand disappeared almost entirely, and the new polar radioactive peaks appeared at the origin of radio-TLC at 30 and 60 min after injection (82% and 100%, respectively; Fig. 9c,d). The radioligand also disappeared in the blood samples, but at a rate slower than that of the brain samples (Fig. 9f–h). The polar radioactive products were further analyzed by radio-TLC using a polar developing solvent system, and the polar products moved toward the solvent front. […] Moreover, the polar products were not adsorbed onto calcium phosphate (7% in calcium phosphate pellet vs. 93% in supernatant), which is a component of the bone matrix.
Figure 9 Radio-TLC analysis of the brain homogenates and blood samples obtained at 2, 30, and 60 min after injection of [^18F]2 into ICR mice. […] The 60-min samples (d and h) were further analyzed by radio-TLC using a 1:1:0.01 mixture of dichloromethane–methanol–triethylamine as the developing solvents (e and i). TLC analysis followed by fluorescence detection of the brain homogenates obtained at 2, 30, and 60 min after injection of 2 into Balb/C nude mice (j). […]
[^18F]2 (19.6 MBq) dissolved in 10% ethanol–saline was injected into ICR mice via a tail vein. […] The supernatants were analyzed by radio-TLC using a 4:1 mixture of ethyl acetate–hexane or a 1:1:0.01 mixture of dichloromethane–methanol–triethylamine as the developing solvents.

Series [9] in a line: In vitro stability in PBS and FBS (radio-TLC). The series is classed as in vitro ADME. The following applies: for remaining at 2 h: 37 °C, 120 min, radio-TLC, read-out: % remaining radioligand. The method, then:
Stability study was performed by incubating [^18F]2 in phosphate-buffered saline (PBS) and in fetal bovine serum (FBS) at 37 °C for 120 min.
Data are presented as % remaining radioligand.
[^18F]2 (21.5 MBq) was dissolved in a minimal volume of 10% ethanol–saline and incubated with PBS or 50% FBS (Gibco, Brooklyn, NY, USA) at 37 °C for 120 min. Aliquots were taken from the incubation solution after 0, 2, 30, 60, and 120 min. The aliquots were analyzed using a radio-TLC scanner.

Where two headings read alike, the source gives them in different places. Bounds are passed on as bounds.

T1 sequence (P05067 672-713): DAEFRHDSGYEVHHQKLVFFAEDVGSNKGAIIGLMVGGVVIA
Aβ plaques, sequence (P05067 672-711 limits assumed): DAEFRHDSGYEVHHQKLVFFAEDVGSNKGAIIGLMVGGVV

For orientation: Kd means the free concentration of one partner at which half of the binding sites on the other are occupied at equilibrium, for simple one-to-one binding. Read a low Kd as a tighter complex. Molecule `CNc1ccc(/C=C/C2=[O+][B-](F)(F)OC(/C=C/c3ccc(OCCOCCF)cc3)=C2)cc1` [Ligand 1, BF2 complex of 4′-monomethylamino-4″-(2-(2-fluoroethoxy)ethoxy)curcuminoid] showed a Kd in series [1] of 33.8 nM.

In series [2], `CN(C)c1ccc(/C=C/C2=[O+][B-](F)(F)OC(/C=C/c3ccc(OCCOCCF)cc3)=C2)cc1` [Ligand 2, BF2 complex of 4′-dimethylamino-4″-(2-(2-fluoroethoxy)ethoxy)curcuminoid] gave an emission of 650 nm. Moreover, the excitation in [2] worked out at 550 nm. For the same molecule, the “fluorescent spot of 2 on TLC of brain homogenate” value was “a fluorescent spot was detected” in series [3] (2-min sample); “did not appear” in series [3] (30- and 60-min samples). This molecule gave a Kd in series [1] of 19.7 nM. In addition, the “staining of Aβ plaques” value in series [4] (Tg APP/PS-1 mouse brain sections, cerebral cortex and hippocampus, 100 μM, 10 min) was “stained”. In addition, the “staining of brain sections” value in series [4] (age-matched wild-type mouse brain sections) is “no notable positive staining”.

By IC50 is commonly meant the concentration at which inhibition is half-maximal. On to `COc1cc(/C=C/C2=CC(/C=C/c3ccc(O)c(OC)c3)=[O+][B-](F)(F)O2)ccc1O` [difluoroboron-curcumin], for which the IC50 in series [5] is 24000 nM.

Broadly, the logP is the decadic logarithm of the partition coefficient of the neutral form, usually between octanol and water. High values mean higher lipophilicity, low ones lower lipophilicity. The term fraction remaining denotes the share of the starting amount still present when the sample was taken. Take `CN(C)c1ccc(/C=C/C2=[O+][B-](F)(F)OC(/C=C/c3ccc(OCCOCC[18F])cc3)=C2)cc1` [[^18F]2]: in [6] (2 min), the “Biodistribution, Blood” value is 1.49 ± 0.12 % ID/g; the “Biodistribution, Brain” value is on record as 0.49 ± 0.02 % ID/g; the “Biodistribution, Femur” value is 0.58 ± 0.10 % ID/g; the “Biodistribution, Heart” value turned out to be 2.20 ± 0.57 % ID/g. In addition, in series [6] (2 min), the “Biodistribution, Kidney” value was found to be 3.25 ± 0.48 % ID/g; the “Biodistribution, Large intestine” value came to 0.24 ± 0.05 % ID/g; the “Biodistribution, Liver” value amounted to 26.92 ± 1.58 % ID/g; the “Biodistribution, Lung” value was determined as 3.56 ± 0.25 % ID/g. For the same molecule, in series [6] (2 min), the “Biodistribution, Muscle” value came out at 0.49 ± 0.19 % ID/g; the “Biodistribution, Small intestine” value turned out to be 0.92 ± 0.13 % ID/g; the “Biodistribution, Spleen” value came out at 12.59 ± 2.42 % ID/g. Also, in series [6] (30 min), the “Biodistribution, Blood” value turned out to be 2.50 ± 0.22 % ID/g; the “Biodistribution, Brain” value turned out to be 1.02 ± 0.08 % ID/g; the “Biodistribution, Femur” value came to 0.91 ± 0.13 % ID/g; the “Biodistribution, Heart” value came out at 1.93 ± 0.19 % ID/g. Further, in series [6] (30 min), the “Biodistribution, Kidney” value is on record as 4.11 ± 0.46 % ID/g; the “Biodistribution, Large intestine” value was 0.95 ± 0.11 % ID/g; the “Biodistribution, Liver” value amounted to 14.21 ± 1.39 % ID/g; the “Biodistribution, Lung” value stood at 2.62 ± 0.29 % ID/g. In addition, in series [6] (30 min), the “Biodistribution, Muscle” value is 0.97 ± 0.11 % ID/g; the “Biodistribution, Small intestine” value was found to be 6.47 ± 1.63 % ID/g; the “Biodistribution, Spleen” value was 11.66 ± 2.70 % ID/g. Further, in series [6] (60 min), the “Biodistribution, Blood” value came to 3.46 ± 0.81 % ID/g; the “Biodistribution, Brain” value is reported as 1.19 ± 0.06 % ID/g; the “Biodistribution, Femur” value amounted to 1.43 ± 0.14 % ID/g; the “Biodistribution, Heart” value amounted to 1.87 ± 0.20 % ID/g. Also, in series [6] (60 min), the “Biodistribution, Kidney” value is given as 2.58 ± 0.15 % ID/g; the “Biodistribution, Large intestine” value is on record as 2.16 ± 0.42 % ID/g; the “Biodistribution, Liver” value worked out at 9.36 ± 0.18 % ID/g; the “Biodistribution, Lung” value came out at 2.34 ± 0.50 % ID/g. Also, in series [6] (60 min), the “Biodistribution, Muscle” value was found to be 0.87 ± 0.05 % ID/g; the “Biodistribution, Small intestine” value was found to be 14.92 ± 4.06 % ID/g; the “Biodistribution, Spleen” value worked out at 10.72 ± 2.45 % ID/g. Besides, the log partition coefficient (logP) in series [7] came to 2.58 ± 0.04. The “[^18F]2 remaining in the brain” value in [8] came to 84%. The share remaining at 120 min in [9] (bovine, PBS and fetal bovine serum (50%), both PBS and FBS, read-out: % remaining radioligand (stable in both PBS and FBS)) was over 83%. Also, in series [9] (bovine, fetal bovine serum (50%), FBS (50% FBS in method)), the share remaining at 2 h worked out at 83%. Moreover, in series [9] (phosphate-buffered saline, PBS), the fraction remaining at 2 h was 89%.

In series [1], `CN(C)c1ccc(/C=C/C2=[O+][B-](F)(F)OC(/C=C/c3ccc(OCC(O)CF)cc3)=C2)cc1` (stereo not shown) [Ligand 4, BF2 complex of 4′-dimethylamino-4″-(3-fluoro-2-hydroxypropoxy)curcuminoid] returned a Kd of 15.3 nM.

Turning to `COc1cc(/C=C/C2=[O+][B-](F)(F)OC(/C=C/c3ccc(OCCOCCF)c(OC)c3)=C2)ccc1O` [Ligand 3, BF2 complex of 4′-(2-(2-fluoroethoxy)ethoxy)curcuminoid], the equilibrium dissociation constant (Kd) in series [1] was 138 nM.
